Reference: ChEMBL document CHEMBL4689842, “EUbOPEN Chemogenomics Library wave 1” (2021)

How the values were obtained:
Format in all cases: toxicity, cell-based
Fibroblast = assay: Incucyte cell viability with human fibroblast; conditions: 10 µM, compound concentration 10 uM
U2OS = assay: Incucyte cell viability with U2OS; conditions: human, 10 µM, compound concentration 10 uM
HEK-293T = assay: Incucyte cell viability with HEK293T; conditions: human, 10 µM, compound concentration 10 uM
[1] = 0 h, replicate number 1, timepoint 0 hours
[2] = 0 h, replicate number 2, timepoint 0 hours
[3] = 6 h, replicate number 1, timepoint 6 hours
[4] = 12 h, replicate number 1, timepoint 12 hours
[5] = 18 h, replicate number 1, timepoint 18 hours
[6] = 18 h, replicate number 2, timepoint 18 hours
[7] = 24 h, replicate number 1, timepoint 24 hours
[8] = 6 h, replicate number 2, timepoint 6 hours
[9] = 12 h, replicate number 2, timepoint 12 hours
[10] = 24 h, replicate number 2, timepoint 24 hours
Note: filed as whole numbers so only -1 and 0 and 1 occur.

| SMILES | Growth Rate (Fibroblast; [1]) | Growth Rate (Fibroblast; [2]) | Growth Rate (Fibroblast; [3]) | Growth Rate (Fibroblast; [4]) | Growth Rate (Fibroblast; [5]) | Growth Rate (Fibroblast; [6]) | Growth Rate (Fibroblast; [7]) | Growth Rate (U2OS; [1]) | Growth Rate (U2OS; [6]) | Growth Rate (U2OS; [7]) | Growth Rate (HEK-293T; [1]) | Growth Rate (HEK-293T; [3]) | Growth Rate (HEK-293T; [4]) | Growth Rate (HEK-293T; [5]) | Growth Rate (HEK-293T; [7]) | Growth Rate (U2OS; [3]) | Growth Rate (U2OS; [4]) | Growth Rate (U2OS; [5]) | Growth Rate (HEK-293T; [2]) | Growth Rate (Fibroblast; [8]) | further results |
| --- | --- | --- | --- | --- | --- | --- | --- | --- | --- | --- | --- | --- | --- | --- | --- | --- | --- | --- | --- | --- | --- |
| CC1=C2C[C@H]3[C@@H](CC=C4C[C@@H](O)CC[C@@]43C)[C@@H]2CC[C@]12O[C@@H]1C[C@H](C)CN[C@H]1[C@H]2C [CYCLOPAMINE] | 0 | 1 | 1 | 0 | 0 | 1 | 0 | 0 | 1 | 1 | 0 | 0 | 0 | 0 | 0 | – | – | – | – | – | Growth Rate (U2OS; [8]): 0; Growth Rate (U2OS; [9]): 1 |
| Cc1c(F)cccc1NC(=O)Nc1ccc(Cl)c(S(=O)(=O)[C@H]2CCCNC2)c1O [DANIRIXIN] | 0 | – | – | 1 | 1 | – | 1 | 0 | 1 | 0 | 0 | 0 | 0 | 0 | 0 | 0 | 0 | 0 | – | – | Growth Rate (U2OS; [2]): 1; Growth Rate (U2OS; [8]): 1; Growth Rate (U2OS; [9]): 1; Growth Rate (U2OS; [10]): 1 |
| CCN(CCO)CCCOc1ccc2c(Nc3cc(CC(=O)Nc4cccc(F)c4)[nH]n3)ncnc2c1 [DEFOSBARASERTIB] | – | 1 | 0 | 0 | 0 | – | 0 | 1 | – | 0 | – | – | – | – | 1 | 0 | 0 | 0 | 1 | – | Growth Rate (HEK-293T; [8]): 1 |
| COc1cccc(-c2c(C)n(Cc3c(F)cccc3C(F)(F)F)c(=O)n(C[C@H](NCCCC(=O)[O-])c3ccccc3)c2=O)c1F.[Na+] [ELAGOLIX SODIUM] | 0 | 1 | – | – | – | 0 | – | – | 1 | 0 | 0 | 1 | 1 | 1 | 1 | 0 | 0 | 0 | – | 0 | Growth Rate (Fibroblast; [9]): 0; Growth Rate (Fibroblast; [10]): 0; Growth Rate (U2OS; [2]): 1; Growth Rate (HEK-293T; [9]): 0 |
| C[C@H](NC(=O)Nc1cc2[nH]ncc2c(CO)n1)c1ccccn1 [ERKi-NC] | – | 1 | 0 | 0 | 1 | 0 | 1 | 0 | 1 | 0 | 0 | – | – | 1 | 1 | 0 | 0 | 0 | 1 | – | Growth Rate (U2OS; [8]): 1; Growth Rate (U2OS; [9]): 1; Growth Rate (U2OS; [10]): 1 |
| C[C@@H](NC(=O)Nc1cc2[nH]ncc2c(CO)n1)c1ccccc1 [ERKi] | 0 | – | – | 1 | 1 | – | 0 | 0 | – | 0 | 0 | – | – | – | – | 0 | 0 | 0 | – | – | Growth Rate (Fibroblast; [10]): 1; Growth Rate (HEK-293T; [10]): 1 |
| CCOC(=O)c1ncn2c1CN(C)C(=O)c1cc(F)ccc1-2 [FLUMAZENIL] | 0 | – | – | – | 1 | 0 | 1 | 1 | 1 | 0 | 0 | 1 | 1 | 1 | 1 | 0 | 0 | 0 | – | 0 | Growth Rate (Fibroblast; [9]): 0; Growth Rate (U2OS; [10]): 1; Growth Rate (HEK-293T; [8]): 0; Growth Rate (HEK-293T; [9]): 0; Growth Rate (HEK-293T; [6]): 0; Growth Rate (HEK-293T; [10]): 0 |
| CC(C)(N)C(=O)N[C@H](COCc1ccccc1)C(=O)N1CCC2(CC1)CN(S(C)(=O)=O)c1ccccc12.CS(=O)(=O)O [IBUTAMOREN MESYLATE] | 1 | – | 0 | 0 | 0 | – | 0 | – | – | 1 | 0 | 0 | 1 | 0 | 0 | – | – | 1 | – | 1 | Growth Rate (Fibroblast; [9]): 1; Growth Rate (U2OS; [8]): 1; Growth Rate (U2OS; [9]): 1; Growth Rate (HEK-293T; [6]): 1; Growth Rate (HEK-293T; [10]): 1 |
| CN(C)CCCN1c2ccccc2CCc2ccccc21.Cl [IMIPRAMINE HYDROCHLORIDE] | 0 | – | 0 | 0 | 1 | 0 | 0 | – | – | 1 | – | 0 | 0 | 0 | 0 | – | 1 | 1 | 1 | – | Growth Rate (U2OS; [2]): 0 |
| CC(C)(O)c1cncc(-c2nc3ccc(F)cc3n2C2CC2)c1 [MSD-CYP11B2] | – | – | 1 | 1 | 1 | 0 | – | 0 | 1 | 1 | 0 | – | 0 | 0 | 0 | 0 | 0 | 0 | 1 | 0 | Growth Rate (Fibroblast; [10]): 1; Growth Rate (U2OS; [8]): 1; Growth Rate (U2OS; [9]): 1; Growth Rate (HEK-293T; [6]): 1 |
| N#CC1(c2ccccn2)CCN(Cc2cc(C(=O)O)c(=O)n3ccccc23)CC1 [MSD-M1PAM] | 0 | – | 0 | 0 | 0 | 1 | 0 | – | 1 | 0 | 1 | 1 | 1 | 1 | 1 | 0 | 0 | 0 | 0 | – | Growth Rate (U2OS; [2]): 1; Growth Rate (U2OS; [10]): 1; Growth Rate (HEK-293T; [10]): 0 |
| c1cc(CN2CCCNCCNCCCNCC2)ccc1CN1CCCNCCNCCCNCC1 [PLERIXAFOR] | 0 | 1 | 1 | 0 | 1 | 0 | 0 | – | 0 | 1 | 1 | 0 | 0 | 0 | 0 | 0 | 1 | 1 | 0 | 0 | Growth Rate (U2OS; [9]): 0; Growth Rate (U2OS; [10]): 0; Growth Rate (HEK-293T; [8]): 1 |
| COc1ncc(F)cc1CNc1ccc(Cc2c[nH]c3ncc(C)cc23)c(F)n1 [PLX-5622] | – | 1 | 1 | 1 | 0 | 1 | 0 | – | – | 0 | 0 | 1 | 1 | 1 | 1 | 0 | 0 | 0 | 1 | 0 | Growth Rate (Fibroblast; [9]): 0; Growth Rate (U2OS; [2]): 0; Growth Rate (HEK-293T; [10]): 0 |
| CC(C)NCC(O)COc1cccc2ccccc12.Cl (stereo not given) [PROPRANOLOL HYDROCHLORIDE] | 0 | – | 1 | 1 | 1 | 0 | 1 | 0 | – | 1 | – | 0 | 0 | 0 | 0 | 0 | 1 | 1 | 0 | 0 | Growth Rate (Fibroblast; [9]): 0; Growth Rate (Fibroblast; [10]): 0; Growth Rate (HEK-293T; [8]): 1 |
